Counter-ions that a name gives are not always drawn.
Target: T1, histamine H3 receptor (Homo sapiens, UniProt Q9Y5N1)
T1 construct: expressed in transfected cells; host or cells: CHO K1 cells (pSwitch/pGene GeneSwitch system, mifepristone-induced), clone 3H3; membranes
Assay: Histamine H3 functional antagonist assay (method A)
Type: biochemical
Settings: [35S]-GTPγS SPA, membrane prepared from cultured H3 cells, histamine at EC80, averages of a number of experiments, read-out: functional pKi (fpKi), antagonism (converted)
Description: (§1) A membrane preparation containing histamine H3 receptors may be prepared in accordance with the following procedures:
(§2) (i) Generation of Histamine H3 Cell Line
(§3) DNA encoding the human histamine H3 gene (Huvar, A. et al. (1999) Mol. Pharmacol. 55(6), 1101-1107) was cloned into a holding vector, pcDNA3.1 TOPO (InVitrogen) and its cDNA was isolated from this vector by restriction digestion of plasmid DNA with the enzymes BamH1 and Not-1 and ligated into the inducible expression vector pGene (InVitrogen) digested with the same enzymes. The GeneSwitch™ system (a system where in transgene expression is switched off in the absence of an inducer and switched on in the presence of an inducer) was performed as described in U.S. Pat. Nos. 5,364,791; 5,874,534; and 5,935,934. Ligated DNA was transformed into competent DH5α E. coli host bacterial cells and plated onto Luria Broth (LB) agar containing Zeocin™ (an antibiotic which allows the selection of cells expressing the sh ble gene which is present on pGene and pSwitch) at 50 μg ml^−1. Colonies containing the re-ligated plasmid were identified by restriction analysis. DNA for transfection into mammalian cells was prepared from 250 ml cultures of the host bacterium containing the pGeneH3 plasmid and isolated using a DNA preparation kit (Qiagen Midi-Prep) as per manufacturers guidelines (Qiagen).
(§4) CHO K1 cells previously transfected with the pSwitch regulatory plasmid (InVitrogen) were seeded at 2×10e6 cells per T75 flask in Complete Medium, containing Hams F12 (GIBCOBRL, Life Technologies) medium supplemented with 10% v/v dialysed foetal bovine serum, L-glutamine, and hygromycin (100 μg ml^−1), 24 hours prior to use. Plasmid DNA was transfected into the cells using Lipofectamine plus according to the manufacturers guidelines (InVitrogen). 48 hours post transfection cells were placed into complete medium supplemented with 500 μg ml^−1 Zeocin™.
(§5) 10-14 days post selection 10 nM Mifepristone (InVitrogen), was added to the culture medium to induce the expression of the receptor. 18 hours post induction cells were detached from the flask using ethylenediamine tetra-acetic acid (EDTA; 1:5000; InVitrogen), following several washes with phosphate buffered saline pH 7.4 and resuspended in Sorting Medium containing Minimum Essential Medium (MEM), without phenol red, and supplemented with Earles salts and 3% Foetal Clone II (Hyclone). Approximately 1×10e7 cells were examined for receptor expression by staining with a rabbit polyclonal antibody, 4a, raised against the N-terminal domain of the histamine H3 receptor, incubated on ice for 60 minutes, followed by two washes in sorting medium. Receptor bound antibody was detected by incubation of the cells for 60 minutes on ice with a goat anti rabbit antibody, conjugated with Alexa 488 fluorescence marker (Molecular Probes). Following two further washes with Sorting Medium, cells were filtered through a 50 μm Filcon™ (BD Biosciences) and then analysed on a FACS Vantage SE Flow Cytometer fitted with an Automatic Cell Deposition Unit. Control cells were non-induced cells treated in a similar manner. Positively stained cells were sorted as single cells into 96-well plates, containing Complete Medium containing 500 μg ml^−1 Zeocin™ and allowed to expand before reanalysis for receptor expression via antibody and ligand binding studies. One clone, 3H3, was selected for membrane preparation.
(ii) Membrane Preparation from Cultured Cells […]

T1 sequence (Q9Y5N1 whole entry): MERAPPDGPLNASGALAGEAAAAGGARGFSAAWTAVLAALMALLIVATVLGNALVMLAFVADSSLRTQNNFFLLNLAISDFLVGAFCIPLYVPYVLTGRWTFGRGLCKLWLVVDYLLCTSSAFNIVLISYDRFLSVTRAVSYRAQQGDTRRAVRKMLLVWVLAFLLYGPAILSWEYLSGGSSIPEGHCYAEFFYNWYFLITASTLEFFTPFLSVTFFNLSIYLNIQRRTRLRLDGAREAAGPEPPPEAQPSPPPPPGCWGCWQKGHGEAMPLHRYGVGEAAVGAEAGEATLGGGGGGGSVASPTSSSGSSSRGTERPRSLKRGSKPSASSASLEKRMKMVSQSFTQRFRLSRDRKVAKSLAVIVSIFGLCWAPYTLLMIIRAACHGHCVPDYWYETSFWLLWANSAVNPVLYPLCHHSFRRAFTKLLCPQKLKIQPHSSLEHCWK

| SMILES | Ki [nM] |
| --- | --- |
| O=C(C1CCN(c2ccc(C(F)(F)F)nc2)C1)N1CCCN(C2CCC2)CC1 (racemic) [Example E17, (R,S)-1-Cyclobutyl-4-({1-[6-(trifluoromethyl)-3-pyridinyl]-3-pyrrolidinyl}carbonyl)hexahydro-1H-1,4-diazepine] | < 0.316 |
| CC(C)N1CCCN(C(=O)C2CCN(c3ccc(C(F)(F)F)nc3)C2)CC1 (racemic) [Example E22, (R,S)-1-(1-Methylethyl)-4-({(1-[6-(trifluoromethyl)-3-pyridinyl]-3-pyrrolidinyl}carbonyl)hexahydro-1H-1,4-diazepine hydrochloride] | < 10 |
| O=C([C@H]1CCN(c2ccc(C(F)(F)F)nc2)C1)N1CCCN(C2CCC2)CC1 (single isomer, unassigned) [Example E17B, hydrochloride] | < 0.316 |
| O=C(C1CCN(c2ccnc(C(F)(F)F)c2)C1)N1CCCN(C2CCC2)CC1 (racemic) [Example E23, (R,S)-1-Cyclobutyl-4-({1-[2-(trifluoromethyl)-4-pyridinyl]-3-pyrrolidinyl}carbonyl)hexahydro-1H-1,4-diazepine hydrochloride] | < 0.316 |
| O=C([C@@H]1CCN(c2ccc(C(F)(F)F)nc2)C1)N1CCCN(C2CCC2)CC1 (single isomer, unassigned) [Example E17A, hydrochloride] | < 0.316 |

Target: T1, histamine H3 receptor
Assay: Histamine H3 functional antagonist assay (method B)
Type: biochemical
Settings: [35S]-GTPγS SPA, membrane prepared from cultured H3 cells, histamine at EC80, averages of a number of experiments, read-out: functional pKi (fpKi), antagonism (converted)
Description: as §1, §2, §3, §4, §5
(ii) Membrane Preparation from Cultured Cells
All steps of the protocol are carried out at 4° C. and with pre-cooled reagents. The cell pellet is resuspended in 10 volumes of homogenisation buffer (50 mM N-2-hydroxyethylpiperazine-N′-2-ethanesulfonic acid (HEPES), 1 mM ethylenediamine tetra-acetic acid (EDTA), pH 7.4 with KOH, supplemented with 10e-6M leupeptin (acetyl-leucyl-leucyl-arginal; Sigma L2884), 25 μg/ml bacitracin (Sigma B0125), 1 mM phenylmethylsulfonyl fluoride (PMSF) and 2×10e-6M pepstain A (Sigma)). […]

| SMILES | Ki [nM] |
| --- | --- |
| O=C(C1CCN(c2ccc(C(F)(F)F)nc2)C1)N1CCCN(C2CCC2)CC1 (racemic) [Example E17, (R,S)-1-Cyclobutyl-4-({1-[6-(trifluoromethyl)-3-pyridinyl]-3-pyrrolidinyl}carbonyl)hexahydro-1H-1,4-diazepine] | ≤ 0.316 |
| Cc1ccc2cc(N3CC[C@H](C(=O)N4CCCN(C5CCC5)CC4)C3)ccc2n1 (single isomer, unassigned) [Example E19B, hydrochloride] | ≤ 0.316 |
| Cc1noc(-c2ccc(N3CC[C@H](C(=O)N4CCN(C(C)C)[C@@H](C)C4)C3)cc2)n1 [Example E6, (2S)-2-Methyl-1-(1-methylethyl)-4-({(3S)-1-[4-(3-methyl-1,2,4-oxadiazol-5-yl)phenyl]-3-pyrrolidinyl}carbonyl)piperazine] | ≤ 0.316 |
| CCC(CC)N1CCN(C(=O)[C@H]2CCN(c3ccc(C(C)=O)cc3)C2)CC1 [Example E8, 1-[4-((3S)-3-{[4-(1-Ethylpropyl)-1-piperazinyl]carbonyl}-1-pyrrolidinyl)phenyl]ethanone] | ≤ 0.316 |
| CC(=O)c1ccc(N2CC[C@H](C(=O)N3CCCN(C4CCC4)CC3)C2)cc1 (single isomer, unassigned) [Example E21B, hydrochloride] | ≤ 0.316 |
| CC(C)N1CCN(C(=O)[C@H]2CCN(c3ccc(-c4ccno4)cc3)C2)CC1 [Example E41, 1-({(3S)-1-[4-(5-isoxazolyl)phenyl]-3-pyrrolidinyl}carbonyl)-4-(1-methylethyl)piperazine] | ≤ 0.316 |
| Cc1noc(-c2ccc(N3CC[C@H](C(=O)N4CCCN(C(C)C)CC4)C3)cc2F)n1 [Example E29, 1-({(3S)-1-[3-Fluoro-4-(3-methyl-1,2,4-oxadiazol-5-yl)phenyl]-3-pyrrolidinyl}carbonyl)-4-(1-methylethyl)hexahydro-1H-1,4-diazepine hydrochloride] | ≤ 0.316 |
| Cc1noc(-c2ccc(N3CC[C@H](C(=O)N4CCN(C(C)C)CC4)C3)cn2)n1 [Example E54, 1-(1-Methylethyl)-4-({(3S)-1-[6-(3-methyl-1,2,4-oxadiazol-5-yl)-3-pyridinyl]-3-pyrrolidinyl}carbonyl)piperazine hydrochloride] | ≤ 0.316 |
| Cc1nnc(-c2ccc(N3CC[C@H](C(=O)N4CCCN(C(C)C)CC4)C3)cc2)o1 [Example E47, 1-(1-Methylethyl)-4-({(3S)-1-[4-(5-methyl-1,3,4-oxadiazol-2-yl)phenyl]-3-pyrrolidinyl}carbonyl)hexahydro-1H-1,4-diazepine hydrochloride] | ≤ 0.316 |
| Cc1nnc(-c2ccc(N3CC[C@H](C(=O)N4CCN(C(C)C)CC4)C3)cc2)o1 [Example E30, 1-(1-Methylethyl)-4-({(3S)-1-[4-(5-methyl-1,3,4-oxadiazol-2-yl)phenyl]-3-pyrrolidinyl}carbonyl)piperazine] | ≤ 0.316 |
| Cc1noc(-c2ccc(N3CC[C@H](C(=O)N4CCN(C5CCC5)CC4)C3)cc2)n1 [Example E13, 1-Cyclobutyl-4-({(3S)-1-[4-(3-methyl-1,2,4-oxadiazol-5-yl)phenyl]-3-pyrrolidinyl}carbonyl)piperazine] | ≤ 0.316 |
| Cc1noc(-c2ccc(N3CC[C@H](C(=O)N4CCN(C(C)C)CC4)C3)cc2F)n1 [Example E24, 1-({(3S)-1-[3-Fluoro-4-(3-methyl-1,2,4-oxadiazol-5-yl)phenyl]-3-pyrrolidinyl}carbonyl)-4-(1-methylethyl)piperazine] | ≤ 0.316 |
| Cc1noc(-c2ccc(N3CC[C@H](C(=O)N4CCCN(C(C)C)CC4)C3)cc2)n1 [Example E28, 1-(1-Methylethyl)-4-({(3S)-1-[4-(3-methyl-1,2,4-oxadiazol-5-yl)phenyl]-3-pyrrolidinyl}carbonyl)hexahydro-1H-1,4-diazepine] | ≤ 0.316 |
| Cc1nc(-c2ccc(N3CC[C@H](C(=O)N4CCN(C(C)C)CC4)C3)cc2)no1 [Example E33, 1-(1-Methylethyl)-4-({(3S)-1-[4-(5-methyl-1,2,4-oxadiazol-3-yl)phenyl]-3-pyrrolidinyl}carbonyl)piperazine] | ≤ 0.316 |
| CCC(CC)N1CCN(C(=O)[C@H]2CCN(c3ccc(-c4nc(C)no4)cc3)C2)CC1 [Example E9, 1-(1-Ethylpropyl)-4-({(3S)-1-[4-(3-methyl-1,2,4-oxadiazol-5-yl)phenyl]-3-pyrrolidinyl}carbonyl)piperazine] | ≤ 0.316 |
| Cc1cn(-c2ccc(N3CC[C@H](C(=O)N4CCN(C(C)C)CC4)C3)cc2)cn1 [Example E55, 1-(1-Methylethyl)-4-({(3S)-1-[4-(4-methyl-1H-imidazol-1-yl)phenyl]-3-pyrrolidinyl}carbonyl)piperazine dihydrochloride] | ≤ 0.316 |
| Cc1noc(-c2ccc(N3CCC(C(=O)N4CCCN(C5CCC5)CC4)C3)c(F)c2)n1 (racemic) [Example E20, (R,S)-1-Cyclobutyl-4-({1-[2-fluoro-4-(3-methyl-1,2,4-oxadiazol-5-yl)phenyl]-3-pyrrolidinyl}carbonyl)hexahydro-1H-1,4-diazepine] | ≤ 0.316 |

Reference: patent publication US20080045506A1 (GLAXO GROUP LIMITED, priority 2004, published 2008)
